ChEMBL document CHEMBL5346977, “Discovery of Novel d-(+)-Biotin-Conjugated Resorcinol Dibenzyl Ether-Based PD-L1 Inhibitors for Targeted Cancer Immunotherapy” (J Med Chem, 2023)
Active and inactive are the calls of the source. The calls are words filed in the database; no cut-off is given here.

How the values were obtained:
[1] = Clearance in C57BL/6 mouse at 50 mg/kg, ip measured after 4 hrs by HPLC-MS/MS analysis; format: ADME, organism-based; settings: in vivo
[2] = Drug concentration in lung of C57BL/6 mouse implanted with mouse B16-F10 cells at 50 mg/kg, ip measured after 0.5 hrs by UPLC-MS/MS analysis; format: ADME, organism-based; settings: read-out: Ct
[3] = Cmax in C57BL/6 mouse at 50 mg/kg, ip measured after 4 hrs by HPLC-MS/MS analysis; format: ADME, organism-based; set-up: dose 50 mg/kg, time 4 hrs, route ip; settings: in vivo
[4] = Drug concentration in brain of C57BL/6 mouse implanted with mouse B16-F10 cells at 50 mg/kg, ip measured after 4 hrs by UPLC-MS/MS analysis; format: ADME, organism-based; settings: read-out: Ct
[5] = Apparent volume of distribution in C57BL/6 mouse at 50 mg/kg, ip measured after 4 hrs by HPLC-MS/MS analysis; format: ADME, organism-based; settings: in vivo
[6] = Drug concentration in heart of C57BL/6 mouse implanted with mouse B16-F10 cells at 50 mg/kg, ip measured after 2 hrs by UPLC-MS/MS analysis; format: ADME, organism-based; settings: read-out: Ct
[7] = Drug concentration in kidney of C57BL/6 mouse implanted with mouse B16-F10 cells at 50 mg/kg, ip measured after 2 hrs by UPLC-MS/MS analysis; format: ADME, organism-based; settings: read-out: Ct
[8] = molecular target: Programmed cell death protein 1/Programmed cell death 1 ligand 1 (Homo sapiens) (UniProt Q15116+Q9NZQ7); assay: Inhibition of GST-tagged PD-1 (unknown origin)/His-tagged PD-L1 (unknown origin) interaction at 10 nM by HTRF binding assay relative to control; format: protein-complex assay
[9] = Drug concentration in liver of C57BL/6 mouse implanted with mouse B16-F10 cells at 50 mg/kg, ip measured after 4 hrs by UPLC-MS/MS analysis; format: ADME, organism-based; settings: read-out: Ct
[10] = Toxicity in […] with mouse B16-F10 cells assessed as effect on body weight at 50 mg/kg, ip administered once daily for 14 days; format: organism-based; settings: in vivo, 336 h, time 14 day
[11] = Half-life in Sprague-Dawley rat at 20 mg/kg, po measured after 48 hrs by HPLC-MS/MS analysis; format: ADME, organism-based; settings: in vivo
Jurkat = assay: Cytotoxicity against human Jurkat T cells assessed as reduction in cell viability at 1.1 to 10 uM incubated for 48 hrs by CCK-8 assay; format: toxicity, cell-based; settings: dose 1.1-10 µM
[12] = Drug concentration in liver of C57BL/6 mouse implanted with mouse B16-F10 cells at 50 mg/kg, ip measured after 2 hrs by UPLC-MS/MS analysis; format: ADME, organism-based; settings: read-out: Ct
[13] = Drug concentration in tumor of C57BL/6 mouse implanted with mouse B16-F10 cells at 50 mg/kg, ip measured after 1 hrs by UPLC-MS/MS analysis; format: ADME, organism-based, Neoplasm; settings: read-out: Ct
[14] = AUC (0 to t) in Sprague-Dawley rat at 20 mg/kg, po measured after 48 hrs by HPLC-MS/MS analysis; format: ADME, organism-based; set-up: dose 20 mg/kg, time 48 hrs, route po; settings: in vivo
[15] = AUC (0 to infinity) in Sprague-Dawley rat at 20 mg/kg, po measured after 48 hrs by HPLC-MS/MS analysis; format: ADME, organism-based; set-up: dose 20 mg/kg, time 48 hrs, route po; settings: in vivo
[16] = Drug concentration in spleen of C57BL/6 mouse implanted with mouse B16-F10 cells at 50 mg/kg, ip measured after 0.5 hrs by UPLC-MS/MS analysis; format: ADME, organism-based; settings: read-out: Ct
[17] = Drug concentration in plasma of C57BL/6 mouse implanted with mouse B16-F10 cells at 50 mg/kg, ip measured after 1 hrs by UPLC-MS/MS analysis; format: ADME, organism-based
[18] = Drug concentration in spleen of C57BL/6 mouse implanted with mouse B16-F10 cells at 50 mg/kg, ip measured after 1 hrs by UPLC-MS/MS analysis; format: ADME, organism-based; settings: read-out: Ct
[19] = Drug concentration in heart of C57BL/6 mouse implanted with mouse B16-F10 cells at 50 mg/kg, ip measured after 4 hrs by UPLC-MS/MS analysis; format: ADME, organism-based; settings: read-out: Ct
B16-F10 [20] = assay: Antitumor immunity against mouse B16-F10 cells implanted in allogenic BALB/c mouse assessed as increase in CD3+ T cells at 50 mg/kg, ip by flow cytometric analysis (reference value: 2.51%); format: functional
[21] = Drug concentration in plasma of C57BL/6 mouse implanted with mouse B16-F10 cells at 50 mg/kg, ip measured after 2 hrs by UPLC-MS/MS analysis; format: ADME, organism-based
[22] = AUC (0 to t) in Sprague-Dawley rat at 1 mg/kg, iv administered as single dose and measured after 48 hrs by HPLC-MS/MS analysis; format: ADME, organism-based; set-up: dose 1 mg/kg, time 48 hrs, route iv; settings: in vivo
[23] = AUC (0 to infinity) in C57BL/6 mouse at 50 mg/kg, ip measured after 4 hrs by HPLC-MS/MS analysis; format: ADME, organism-based; set-up: dose 50 mg/kg, time 4 hrs, route ip; settings: in vivo
HepG2 [24] = assay: Antitumor immunity activity against human HepG2 cells expressing human PD-L1 co-cultured with human Jurkat T cells expressing human PD-1 assessed as reduction in cell viability incubated for 48 hrs by CCK8 assay; format: functional, cell-based; settings: dose 1.1-10 µM
[25] = Drug concentration in brain of C57BL/6 mouse implanted with mouse B16-F10 cells at 50 mg/kg, ip measured after 0.5 hrs by UPLC-MS/MS analysis; format: ADME, organism-based; settings: read-out: Ct
HepG2 [26] = assay: Antitumor activity against human HepG2 cells assessed as reduction in cell viability at 1.1 to 10 uM incubated for 48 hrs by CCK-8 assay; format: functional, cell-based; settings: dose 1.1-10 µM
[27] = Tmax in C57BL/6 mouse at 50 mg/kg, ip measured after 4 hrs by HPLC-MS/MS analysis; format: ADME, organism-based; settings: in vivo
[28] = molecular target: Programmed cell death 1 ligand 1 (Mus musculus, UniProt Q9EP73); assay: Binding affinity to mouse PD-L1 assessed as dissociation constant by MST analysis
[29] = Drug concentration in tumor of C57BL/6 mouse implanted with mouse B16-F10 cells at 50 mg/kg, ip measured after 0.5 hrs by UPLC-MS/MS analysis; format: ADME, organism-based, Neoplasm; settings: read-out: Ct
[30] = Toxicity in allogenic BALB/c mouse implanted with mouse B16-F10 cells assessed as severe crypt necrosis in colon at 50 mg/kg, ip by H&E staining based analysis; format: organism-based; settings: in vivo
B16-F10 [31] = assay: Antitumor immunity against mouse B16-F10 cells implanted in allogenic BALB/c mouse assessed as increase in CD3+ CD8+ T cells percentage at 50 mg/kg, ip by flow cytometric analysis; format: functional, organism-based
[32] = Drug concentration in liver of C57BL/6 mouse implanted with mouse B16-F10 cells at 50 mg/kg, ip measured after 0.5 hrs by UPLC-MS/MS analysis; format: ADME, organism-based; settings: read-out: Ct
[33] = Cmax in Sprague-Dawley rat at 20 mg/kg, po measured after 48 hrs by HPLC-MS/MS analysis; format: ADME, organism-based; set-up: dose 20 mg/kg, time 48 hrs, route po; settings: in vivo
[34] = Drug concentration in lung of C57BL/6 mouse implanted with mouse B16-F10 cells at 50 mg/kg, ip measured after 1 hrs by UPLC-MS/MS analysis; format: ADME, organism-based; settings: read-out: Ct
[35] = Drug concentration in heart of C57BL/6 mouse implanted with mouse B16-F10 cells at 50 mg/kg, ip measured after 0.5 hrs by UPLC-MS/MS analysis; format: ADME, organism-based; settings: read-out: Ct

Chain of Programmed cell death 1 ligand 1 (Q9EP73 whole entry): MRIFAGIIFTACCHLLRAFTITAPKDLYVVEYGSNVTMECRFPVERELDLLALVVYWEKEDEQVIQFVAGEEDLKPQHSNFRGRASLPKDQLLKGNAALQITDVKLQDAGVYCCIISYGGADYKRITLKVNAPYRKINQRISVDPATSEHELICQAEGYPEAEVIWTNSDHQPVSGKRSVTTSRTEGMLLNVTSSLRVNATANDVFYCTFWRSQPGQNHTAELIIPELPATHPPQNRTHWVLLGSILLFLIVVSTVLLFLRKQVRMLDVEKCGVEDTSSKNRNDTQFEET

Cc1c(COc2cc(OCc3cccc(C#N)c3)c(CN3CCCCC3C(=O)NCCNC(=O)CCCC[C@@H]3SC[C@@H]4NC(=O)N[C@@H]43)cc2Cl)cccc1-c1ccccc1 (stereo partly specified)
CL [1]: 122.6 mL/min/kg | concentration at 0.5 h [2]: 285 ng/mL | Cmax [3]: 1540 ng/mL | concentration at 4 h [4]: 4.6 ng/mL | Vz [5]: 39.163 L/kg | concentration at 2 h [6]: 12.4 ng/mL | concentration at 2 h [7]: 208 ng/mL | inhibition [8]: 103% | concentration at 4 h [9]: 3650 ng/mL | Activity [10]: Non-Toxic | half-life [11]: 2.6 h | Activity (Jurkat): Non-Toxic | concentration at 2 h [12]: 1670 ng/mL | concentration at 1 h [13]: 28.4 ng/mL | AUCt [14]: 1160 ng·h/mL | AUC [15]: 1170 ng·h/mL | concentration at 0.5 h [16]: 4570 ng/mL | concentration at 1 h [17]: 1460 ng/mL | concentration at 1 h [18]: 3470 ng/mL | concentration at 4 h [19]: 16.3 ng/mL | Activity (B16-F10 [20]): 24.9% | concentration at 2 h [21]: 1400 ng/mL | AUCt [22]: 719 ng·h/mL | AUC [23]: 14501.641 µg/L/h | Activity (HepG2 [24]): Dose-Dependent Effect | concentration at 0.5 h [25]: 2.5 ng/mL | Activity (HepG2 [26]): inactive | Tmax [27]: 2.4 h | Kd [28]: 438 nM | concentration at 0.5 h [29]: 15.5 ng/mL | Activity [30]: Non-Toxic | Activity (B16-F10 [31]): Active | concentration at 0.5 h [32]: 1970 ng/mL | Cmax [33]: 177 ng/mL | concentration at 1 h [34]: 193 ng/mL | concentration at 0.5 h [35]: 4.7 ng/mL
